Assay results: PubChem BioAssay AID330 (DTP/NCI, 2004)
Where “and” joins values, the source holds several entries; their conditions need not be identical. Equal values may be shown once. Inconclusive results and toxic doses are left out. The calls were made as follows: active = survival T/C of 150% or more; inactive = T/C below 125% in these data.

Test system: P388 leukemia ip, CD2F1 mice, survival T/C
Experiment: NCI In Vivo Anticancer Drug Screen. Data for tumor model P388 Leukemia (intraperitoneal) in CD2F1 (CDF1) mice
Conditions: endpoint: median survival time, higher = longer survival
Method in brief: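 Mice carrying the transplanted tumor received test compound or vehicle. Survival was recorded in each group, and the value is the treated-group measurement divided by that of the vehicle-treated control group.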

[1] = dose: 60.0 mg/kg/injection, schedule: Q01DX005 (ip), vehicle: saline with Tween-80
[2] = dose: 120.0 mg/kg/injection, schedule: Q01DX005 (ip), vehicle: saline with Tween-80
[3] = dose: 240.0 mg/kg/injection, schedule: Q01DX005 (ip), vehicle: saline with Tween-80
[4] = dose: 50.0 mg/kg/injection, schedule: Q01DX005 (ip), vehicle: saline with Tween-80
[5] = dose: 100.0 mg/kg/injection, schedule: Q01DX005 (ip), vehicle: saline with Tween-80
[6] = dose: 200.0 mg/kg/injection, schedule: Q01DX005 (ip), vehicle: saline with Tween-80

Measured: T/C

OC(CCl)CN1CC[N+]2(CC1)CC[N+]1(CCN(CC(O)CCl)CC1)CC2 (configuration not stated)
inactive: dose: 25.0 mg/kg/injection, schedule: Q01DX005 (ip), vehicle: water 100 % of control | dose: 25.0 mg/kg/injection, schedule: Q01DX005 (iv), vehicle: water 103 % of control | dose: 25.0 mg/kg/injection, schedule: Q01DX009 (sc), vehicle: water 97 % of control | dose: 25.0 mg/kg/injection, schedule: Q03HX008 (ip), vehicle: water 106 % of control | dose: 25.0 mg/kg/injection, schedule: Q03HX016 (ip), vehicle: water 100 % of control | dose: 25.0 mg/kg/injection, schedule: Q03HX024 (ip), vehicle: water 113 % of control | dose: 50.0 mg/kg/injection, schedule: Q01DX005 (ip), vehicle: water 101 % of control and 92 % of control | dose: 50.0 mg/kg/injection, schedule: Q01DX005 (iv), vehicle: water 102 % of control and 105 % of control | dose: 50.0 mg/kg/injection, schedule: Q01DX009 (ip), vehicle: water 98 % of control | dose: 50.0 mg/kg/injection, schedule: Q01DX009 (sc), vehicle: water 104 % of control | dose: 50.0 mg/kg/injection, schedule: Q03HX008 (ip), vehicle: water 103 % of control | dose: 50.0 mg/kg/injection, schedule: Q03HX016 (ip), vehicle: water 118 % of control | dose: 50.0 mg/kg/injection, schedule: Q03HX024 (ip), vehicle: water 121 % of control | dose: 100.0 mg/kg/injection, schedule: Q01DX005 (ip), vehicle: water 109 % of control and 98 % of control | dose: 100.0 mg/kg/injection, schedule: Q01DX005 (iv), vehicle: water 100 % of control and 101 % of control | dose: 100.0 mg/kg/injection, schedule: Q01DX009 (ip), vehicle: water 103 % of control | dose: 100.0 mg/kg/injection, schedule: Q01DX009 (oral), vehicle: water 99 % of control | dose: 100.0 mg/kg/injection, schedule: Q01DX009 (sc), vehicle: water 106 % of control | dose: 100.0 mg/kg/injection, schedule: Q03HX008 (ip), vehicle: water 114 % of control | dose: 100.0 mg/kg/injection, schedule: Q03HX024 (ip), vehicle: water 123 % of control | dose: 100.0 mg/kg/injection, schedule: Q04DX003 (ip), vehicle: water 92 % of control | dose: 200.0 mg/kg/injection, schedule: Q01DX001 (ip), vehicle: water 95 % of control | dose: 200.0 mg/kg/injection, schedule: Q01DX005 (ip), vehicle: water 102 % of control and 115 % of control | dose: 200.0 mg/kg/injection, schedule: Q01DX005 (iv), vehicle: water 109 % of control | dose: 200.0 mg/kg/injection, schedule: Q01DX009 (ip), vehicle: water 117 % of control | dose: 200.0 mg/kg/injection, schedule: Q01DX009 (oral), vehicle: water 101 % of control | dose: 200.0 mg/kg/injection, schedule: Q01DX009 (sc), vehicle: water 114 % of control | dose: 200.0 mg/kg/injection, schedule: Q04DX003 (ip), vehicle: water 99 % of control | dose: 200.0 mg/kg/injection, schedule: Q08DX002 (ip), vehicle: water 95 % of control | dose: 400.0 mg/kg/injection, schedule: Q01DX001 (ip), vehicle: water 96 % of control | dose: 400.0 mg/kg/injection, schedule: Q01DX005 (iv), vehicle: water 109 % of control | dose: 400.0 mg/kg/injection, schedule: Q01DX009 (ip), vehicle: water 111 % of control | dose: 400.0 mg/kg/injection, schedule: Q01DX009 (oral), vehicle: water 101 % of control | dose: 400.0 mg/kg/injection, schedule: Q01DX009 (sc), vehicle: water 107 % of control | dose: 400.0 mg/kg/injection, schedule: Q04DX003 (ip), vehicle: water 106 % of control | dose: 400.0 mg/kg/injection, schedule: Q08DX002 (ip), vehicle: water 104 % of control | dose: 800.0 mg/kg/injection, schedule: Q01DX001 (ip), vehicle: water 100 % of control | dose: 800.0 mg/kg/injection, schedule: Q01DX009 (oral), vehicle: water 92 % of control | dose: 800.0 mg/kg/injection, schedule: Q01DX009 (sc), vehicle: water 92 % of control | dose: 800.0 mg/kg/injection, schedule: Q04DX003 (ip), vehicle: water 118 % of control | dose: 800.0 mg/kg/injection, schedule: Q08DX002 (ip), vehicle: water 113 % of control | dose: 1600.0 mg/kg/injection, schedule: Q01DX001 (ip), vehicle: water 119 % of control | dose: 1600.0 mg/kg/injection, schedule: Q08DX002 (ip), vehicle: water 120 % of control

O=C(OCc1ccccc1)N1C[C@@H](O)[C@H](Br)[C@H]1Cc1ccccc1
inactive: dose: 100.0 mg/kg/injection, schedule: Q01DX001 (ip), vehicle: distilled water + alcohol 103 % of control | dose: 200.0 mg/kg/injection, schedule: Q01DX001 (ip), vehicle: distilled water + alcohol 100 % of control | dose: 400.0 mg/kg/injection, schedule: Q01DX001 (ip), vehicle: distilled water + alcohol 97 % of control

C1=C2NNC(c3ccccc3)=C(c3ccccc3)C2=CCC1 (tested in a mixture with another compound)
inactive: [1] 96 % of control | [2] 92 % of control | [3] 91 % of control

c1ccc2c3c(ccc2c1)Oc1ccc2ccccc2c1C3
inactive: dose: 100.0 mg/kg/injection, schedule: Q01DX001 (ip), vehicle: Klucel (hydroxypropylcellulose) (HPC) 102 % of control | dose: 200.0 mg/kg/injection, schedule: Q01DX001 (ip), vehicle: Klucel (hydroxypropylcellulose) (HPC) 97 % of control | dose: 400.0 mg/kg/injection, schedule: Q01DX001 (ip), vehicle: Klucel (hydroxypropylcellulose) (HPC) 100 % of control

CC(C)CNN(CC(C)C)C(N)=O
inactive: dose: 100.0 mg/kg/injection, schedule: Q01DX009 (ip), vehicle: saline with Tween-80 102 % of control | dose: 200.0 mg/kg/injection, schedule: Q01DX009 (ip), vehicle: saline with Tween-80 105 % of control

O=C(Nc1ccc(Cl)cc1)N1c2ccccc2SC1c1ccco1 (configuration not stated)
inactive: [4] 89 % of control | [5] 88 % of control | [6] 87 % of control

CC(=C\C=N\N(C)c1ccccc1)/C=C1\Cc2ccccc2C1=O
inactive: dose: 100.0 mg/kg/injection, schedule: Q04DX003 (ip), vehicle: Klucel (hydroxypropylcellulose) (HPC) 99 % of control | dose: 200.0 mg/kg/injection, schedule: Q04DX003 (ip), vehicle: Klucel (hydroxypropylcellulose) (HPC) 97 % of control | dose: 400.0 mg/kg/injection, schedule: Q04DX003 (ip), vehicle: Klucel (hydroxypropylcellulose) (HPC) 96 % of control

COc1cc(C2c3cc(O)c(OC)cc3CC(C(=O)O)C2CO)ccc1O (configuration not stated)
inactive: [4] 100 % of control | [5] 97 % of control | [6] 98 % of control

Cc1ccc(N2CC(O)CN(c3ccc(C)cc3)CC(O)C2)cc1 (configuration not stated)
inactive: [1] 97 % of control | [2] 97 % of control | [3] 94 % of control

c1ccc(-c2nsc3ccccc23)cc1
inactive: dose: 50.0 mg/kg/injection, schedule: Q01DX005 (ip), vehicle: Klucel (hydroxypropylcellulose) (HPC) 99 % of control | dose: 100.0 mg/kg/injection, schedule: Q01DX005 (ip), vehicle: Klucel (hydroxypropylcellulose) (HPC) 106 % of control | dose: 200.0 mg/kg/injection, schedule: Q01DX005 (ip), vehicle: Klucel (hydroxypropylcellulose) (HPC) 101 % of control

O=[N+]([O-])c1cc(C(F)(F)F)cc([N+](=O)[O-])c1Nc1ccccc1
inactive: dose: 30.0 mg/kg/injection, schedule: Q01DX005 (ip), vehicle: Klucel (hydroxypropylcellulose) (HPC) 102 % of control | dose: 60.0 mg/kg/injection, schedule: Q01DX005 (ip), vehicle: Klucel (hydroxypropylcellulose) (HPC) 107 % of control | dose: 120.0 mg/kg/injection, schedule: Q01DX005 (ip), vehicle: Klucel (hydroxypropylcellulose) (HPC) 104 % of control | dose: 240.0 mg/kg/injection, schedule: Q01DX005 (ip), vehicle: Klucel (hydroxypropylcellulose) (HPC) 103 % of control

CC(=O)N1C=CC(=Cc2ccccc2)C=C1
inactive: dose: 50.0 mg/kg/injection, schedule: Q01DX009 (ip), vehicle: Klucel (hydroxypropylcellulose) (HPC) 98 % of control | dose: 100.0 mg/kg/injection, schedule: Q01DX009 (ip), vehicle: Klucel (hydroxypropylcellulose) (HPC) 98 % of control | dose: 200.0 mg/kg/injection, schedule: Q01DX009 (ip), vehicle: Klucel (hydroxypropylcellulose) (HPC) 99 % of control

COc1cc2c(cc1OC(C)=O)C=CCCC2=O
inactive: dose: 100.0 mg/kg/injection, schedule: Q04DX003 (ip), vehicle: saline with Tween-80 105 % of control | dose: 200.0 mg/kg/injection, schedule: Q04DX003 (ip), vehicle: saline with Tween-80 100 % of control | dose: 400.0 mg/kg/injection, schedule: Q04DX003 (ip), vehicle: saline with Tween-80 105 % of control

O=C(CN1C(=O)NC(c2ccccc2)(c2ccccc2)C1=O)NCCN1CCOCC1
inactive: [1] 97 % of control | [2] 96 % of control | [3] 97 % of control
